# Ends that are not written are not given here.
# Assays:
# GPNMB-positive cells = assay: Analysis of Gpnmb-dependent luciferase activity (in vivo IVIS imaging); design: species or system Gpnmb-DTR mouse; conditions: HFD-fed Gpnmb-DTR mouse, 16 weeks of age, s.c. vaccination at 8 weeks of age; vs control vaccine; FIG. 2B
# Protocol: Gpnmb-DTR mouse bred by feeding normal diet or HFD for 4 weeks, and Gpnmb-DTR mouse bred by feeding HFD for 4 weeks, and then injecting DT (50 μg/kg body weight) at 2-week intervals (12 weeks of age and 14 weeks of age) intraperitoneally twice while continuing to feed HFD (16 weeks of age) were subjected to in vivo luciferase imaging analysis using the IVIS imaging system (Perkin Elmer). Mice were shaved ventrally, anesthetized with isoflurane (Wako Pure Chemicals Industries), and injected intraperitoneally with luciferin (150 mg/kg body weight) according to the manufacturer's instructions (Vivo-Glo; Promega). Luciferase activity was monitored 5 minutes after luciferin administration. Signals were analyzed using Living Image software (Perkin Elmer) to quantify luciferase activity. In FIG. 1B, “Before” is a Gpnmb-DTR mouse before HFD was fed (6 weeks of age), “HFD” is a Gpnmb-DTR mouse that was fed with HFD from 6 weeks of age and bred for 6 weeks (12 weeks of age), and “After DT” is a Gpnmb-DTR mouse that was bred by feeding HFD for 4 weeks and then injecting DT (50 μg/kg body weight) at 2-week intervals (12 weeks of age and 14 weeks of age) intraperitoneally twice while continuing to feed HFD (16 weeks of age). […]
# [1] = tested on: replicative aging adipose precursor cells derived from C57BL/6 mice; assay: ADCC (Antibody-Dependent-Cellular-Cytotoxicity) activity analysis; assay type: cell-based; conditions: purified IgG from mice administered with the vaccine; NK effector cells/target cells 1/1; LDH release, 4 hours; FIG. 2E
# Protocol: ADCC (Antibody-Dependent-Cellular-Cytotoxicity) was evaluated using a CytoTox 96 non-radioactive cytotoxicity assay kit (Promega). Specifically, natural killer (NK) cells were isolated from C57BL/6 mice as effector cells using Ficoll-Paque Plus (GE Healthcare) and EasySep mouse NK cell isolation kit (STEMCELL). Subsequently, as target cells, replicative aging adipose precursor cells derived from C57BL/6 mice were seeded on a 96-well plate so as to have 10^4 cells per well. Subsequently, purified IgG antibody obtained from C57BL/6 mice bred by feeding HFD from 4 weeks of age and administered with peptide vaccine 1 or a control vaccine by subcutaneous injection at a time point of 8 weeks of age was added to each well, and incubated at 37° C. for 30 minutes. After incubation, NK cells were seeded in each well so that a ratio of the cell number of effector cells to the target cells (effector cells/target cells) was 1/1. Subsequently, the plates were incubated at 37° C. for an additional 4 hours. Subsequently, lactate dehydrogenase released in a supernatant was detected using a microtiter plate reader (iMark microplate reader, Bio-Rad). To evaluate cell death, a ratio of lysed cells to the total number of cultured cells was calculated. In FIG. 2E, “Cont vac” is a C57BL/6 mouse administered with the control vaccine, and “Gpnmb vac” is a C57BL/6 mouse administered with peptide vaccine 1.
# arteriosclerotic plaque = assay: Detection of arteriosclerotic plaque (Oil Red O staining); assay type: in vivo, ApoE/Gpnmb-DTR mice; conditions: HFD from 4 to 16 weeks of age, s.c. vaccination at 8 weeks of age; vs control vaccine; FIGS. 2J, 2K
# Protocol: Arteriosclerotic plaques were detected by Oil Red O staining. Briefly, autopsy removed adventitial fat to open the entire aorta and fixed the aorta flat in 4 v/v % paraformaldehyde at room temperature for 12 hours. Subsequently, the fixed aorta was washed by immersing in 60 v/v % isopropyl alcohol for 1 minute. Subsequently, the aorta was incubated at 37° C. for 15 minutes in 0.5% of Oil Red O (Sigma-Aldrich) solution (diluted with 60 v/v % isopropyl alcohol). After staining, the sample was briefly immersed in a 60 v/v % isopropyl alcohol solution and then washed with double distilled water. Atherosclerotic lesions were stained red with Oil Red O (refer to FIG. 1G). For the Oil Red O stained region, the plaque region was quantified by Image-J software (refer to FIG. 1H). […]
# Detection of arteriosclerotic plaque and analysis of Gpnmb-dependent luciferase activity were performed using the same method as in “6.” and “2.” of Reference Example 1, except that ApoE/Gpnmb-DTR mice (16 weeks of age) bred while feeding HFD for 12 weeks from 4 to 16 weeks of age and administered with peptide vaccine 1 or a control vaccine by subcutaneous injection at a time point of 8 weeks of age were used (refer to FIG. 2J). The Oil Red O stained region was quantified by Image-J software (refer to FIG. 2K). […]
sequence,measurement,setting,value
"RRGDGRWKD (also: KLH conjugate; listed as Mus musculus) [peptide vaccine 1, peptide of positions 63 to 71 of mouse GPNMB protein]",Gpnmb-dependent luciferase activity,GPNMB-positive cells,decreased
same,antibody-dependent cellular cytotoxicity (ADCC activity),[1],exhibits antibody-dependent cellular cytotoxicity (ADCC activity)
same,"development of atheroma (arteriosclerotic plaque, Oil Red O stained region)",arteriosclerotic plaque,significantly decreased
